We go through three molecules from US10801068B2, “JAG1 expression predicts therapeutic response in NASH” (The Trustees of Columbia University in the City of New York, priority 2015, dated 2020).

Where two headings read alike, the source gives them in different places.

For data set [1], the system named is adult patients with biopsy-confirmed NASH. To be noted: cited from earlier work.
Data set [2] concerns adult, non-diabetic patients with NASH. The data set can be described thus: PIVENS trial (Pioglitazone versus Vitamin E versus Placebo), ancillary analysis of responders, NAS, ALT, HOMA-IR. The data set is classed as in vivo, human. How it is done:
A pilot Ancillary Study to the Pioglitazone versus Vitamin E versus Placebo for the Treatment of nondiabetic Patients with Nonalcoholic Steatohepatitis (PIVENS) trial (Sanyal 2010), was conducted to ask whether hepatic Notch signaling tracks with disease pathology, and thus represent a novel biomarker of NAFLD/NASH.
PIVENS investigators randomized adult, non-diabetic patients with NASH to therapy with placebo, vitamin E (800 IU daily) or pioglitazone (30 mg daily), and had strict inclusion and exclusion criteria for trial entry, as well as a thorough clinical phenotyping of these patients (Sanyal 2011; Sanyal 2010). The PIVENS primary outcome was an improvement in NASH pathology, defined by improved hepatocellular ballooning without increase in fibrosis, and either a 2+ point decrease in NAS or to a score of ≤3 points.
Research-grade specimens were saved from subjects from the PIVENS trial for Ancillary Studies (Chalsani 2009). These samples were used to test the potential role of Notch signaling as either a biomarker or contributor to the NAFLD/NASH pathology.
(§1) A subset (Table 1, right), of PIVENS research subjects had paired baseline and 96 wk cDNA available for analysis.

For data set [3], the system named is HES1. As to the kind of experiment: PIVENS paired baseline and 96 wk liver cDNA, HES1 expression. The data set is classed as in vivo, human. The conditions noted are these: Vitamin E-treated responders, baseline vs 96 wk.
From the text: as §1
(§2) Sample size calculations are based from PIVENS data as described in Example 9A, and exclude pioglitazone-treated patients to be conservative. Using data derived from paired samples in Vitamin E-treated responders (mean difference of 1.11±0.51 fg/ng 18S for HES1 and 2.27±0.71 fg/ng 18S for HEYL), we calculated using unpaired t-testing with type I error=0.05 and type II error=[…], that 12 before-and-after biopsies in FLINT are required to detect a statistically significant difference in OCA-responders for both HES1 and HEYL.

Data set [4] deals with HEYL. The data set can be described thus: PIVENS paired baseline and 96 wk liver cDNA, HEYL expression. Type of data set: in vivo, human. The conditions noted are these: Vitamin E-treated responders, baseline vs 96 wk.
From the text: as §1, §2

Data set [5] has as its system adult, non-diabetic patients with NASH. To be noted: final analysis; vitamin E 800 IU daily, pioglitazone 30 mg daily; cited from earlier work.
[6] abbreviates: Cross-sectional study, nonresponders (NR).
The mark [7] stands for this setting: Cross-sectional study, responders (R).
The mark [8] stands for this setting: Cross-sectional study, number of subjects with NASH resolution or primary PIVENS outcome.
The mark [9] stands for this setting: Longitudinal study, nonresponders (NR).
Setting [10] is: Longitudinal study, responders (R).
The mark [11] stands for this setting: Longitudinal study, number of subjects.

For `CC[C@H]1[C@@H](O)[C@@H]2[C@H](CC[C@]3(C)[C@@H]([C@H](C)CCC(=O)O)CC[C@@H]23)[C@@]2(C)CC[C@@H](O)C[C@@H]12` [OCA, obeticholic acid], the HOMA-IR entry in data set [1] (change, p=0.01) is recorded as “+13 U”. Further, the insulin entry in data set [1] (change, p=0.02) was “+29 pmol/L”. Also, in data set [1] (in vivo), the HDL cholesterol entry is reported as “significant lowering” and the insulin resistance result is recorded as “increased insulin resistance”. Also, in data set [1] (in vivo, listed as obeticholic acid), the insulin resistance result was “clearly induced insulin resistance”.

Consider `CCc1ccc(CCOc2ccc(CC3SC(=O)NC3=O)cc2)nc1` (stereo not shown) [PIO, pioglitazone], for which the “Responders (%)” value in data set [2] (Cross-sectional study) is reported as “(78%)”; in data set [2] (Longitudinal study) it was “(75%)”. For the same molecule, the ALT in data set [2] (setting [6]) is 46 U/L; in data set [2] (setting [7]), 34 ± U/L; in data set [2] (setting [9]), 56 U/L; in data set [2] (setting [10]), 41 U/L. Further, the HOMA-IR in data set [2] (setting [6]) is recorded as 5.5; in data set [2] (setting [7]), 2.9 ±; in data set [2] (setting [9]) it was 4.1; in data set [2] (setting [10]), 3.3. Further, the NAS in data set [2] (setting [6]) is given as 4.8; in data set [2] (setting [7]) it was 2.2 ±; in data set [2] (setting [9]), 5.0; in data set [2] (setting [10]), 3.0. The Responders in data set [2] (setting [8]) came out at 29; in data set [2] (setting [11]), 3.

Take vitamin E [VitE]: the “Responders (%)” value in data set [2] (Cross-sectional study) was “(61%)”; in data set [2] (Longitudinal study), “(60%)”. In addition, the ALT in data set [2] (setting [6]) worked out at 55 U/L; in data set [2] (setting [7]), 33 U/L; in data set [2] (setting [9]) it was 58 U/L; in data set [2] (setting [10]), 45 U/L. In addition, the HOMA-IR in data set [2] (setting [6]) is 5.6; in data set [2] (setting [7]) it was 5.2; in data set [2] (setting [9]), 5.1; in data set [2] (setting [10]), 5.1. Also, the NAS is on record as 4.6 in data set [2] (setting [6]), 2.7 ± in data set [2] (setting [7]), 3.9 in data set [2] (setting [9]) and 2.6 in data set [2] (setting [10]). Moreover, the values for the Responders in data set [2] (setting [8]) and in data set [2] (setting [11]) were 25 and 6, respectively. Further, the “mean difference of HES1 in paired samples” value in data set [3] was found to be 1.11±0.51 fg/ng 18S. In addition, in data set [4], the “mean difference of HEYL in paired samples” value is given as 2.27±0.71 fg/ng 18S. The “PIVENS primary outcome (improvement in NASH pathology)” value in data set [5] was “met the primary outcome”.
